Assay results reported in patent US8785452B2, “Anti-infective compounds” (priority 2008, dated 2014).
Like-named read-outs stand apart in the source and are kept apart here.

Experiments:
[1] = test system: M. tuberculosis H37Rv-GFP; test: microbe, parasite or virus in culture; assay type: cell-based; details: Mycobacterium tuberculosis; for inhibition at 0.2 µM: read-out: QUM Confirm % Inhibition 0.2 uM; for inhibition at 2 µM: read-out: QUM Confirm % Inhibition 2 uM; for inhibition at 20 µM: read-out: QUM Confirm % Inhibition 20 uM
[2] = test system: M. tuberculosis H37Rv-GFP; test: microbe, parasite or virus in culture; assay type: cell-based, Mycobacterium tuberculosis; details: Mycobacterium tuberculosis, H37RV, Macrophage; for inhibition at 0.2 µM: read-out: QIM Confirm % Inhibition 0.2 uM; for inhibition at 2 µM: read-out: QIM Confirm % Inhibition 2 uM
[3] = test system: Raw264.7 cells; test: Cell number (CellNb) from image analysis of the phenotypic cell-based assay
[4] = confirmation, 0.2 uM, intracellular
[5] = confirmation, 2 uM, intracellular
[6] = confirmation, 20 uM, read-out: QIM Confirm % Inhibition 20 uM
[7] = primary screen, 20 μM, read-out: Primary QIM % Inhibition
[8] = read-out: Primary QIM % Inhibition
[9] = read-out: QIM Confirm % Inhibition 20 uM

Row | Compound | inhibition at 0.2 µM [1] [%] | inhibition at 2 µM [1] [%] | inhibition at 20 µM [1] [%] | inhibition at 0.2 µM [2, 4] [%] | inhibition at 2 µM [2, 5] [%] | inhibition at 20 µM [2, 6] [%] | inhibition at 20 µM [2, 7] [%] | QIM Confirm CellNb 0.2 uM ([3]; confirmation, 0.2 uM) | QIM Confirm CellNb 2 uM ([3]; confirmation, 2 uM) | QIM Confirm CellNb 20 uM ([3]; confirmation, 20 uM) | Primary QIM CellNb ([3]; primary screen, 20 μM) | inhibition at 20 µM [2, 8] [%] | inhibition at 0.2 µM [2] [%] | inhibition at 2 µM [2] [%] | inhibition at 20 µM [2, 9] [%] | Primary QIM CellNb [3] | QIM Confirm CellNb 0.2 uM [3] | QIM Confirm CellNb 2 uM [3] | QIM Confirm CellNb 20 uM [3]
1 | CCCCS(=O)(=O)/C=C\C=C\S(=O)(=O)CCCC [IPK 000 036 07] | 42.3 | 47.9 | 70.6 | 17.2 | 32 | 59.5 | 27.7 | 267.4 | 293.9 | 164.4 | 142.3 |  |  |  |  |  |  |  | 
2 | O=C(/C=C/c1ccc(Cl)cc1Cl)c1ccc(Cl)cc1 [IPK 000 015 36] | 41.9 | 59.4 | 79.5 | 15.8 | -4.8 | 36.1 | 38.1 | 331.0 | 286.0 | 168.0 | 146.5 |  |  |  |  |  |  |  | 
3 | O=C(NCc1ccc2c(c1)OCO2)c1cc([N+](=O)[O-])cc([N+](=O)[O-])c1 [IPK 000 027 85] | 97.2 | 97.9 | 71.7 | 83 | 99.4 | 40.1 | 100 | 429.3 | 487.4 | 224.8 | 315.0 |  |  |  |  |  |  |  | 
4 | O=C(N/N=C/c1cc(Br)cc(Br)c1O)c1ccncc1 [IPK 000 009 33] | 31.8 | 44.5 | 69.8 | 8.5 | 92.5 | 56.9 | 79.9 | 264.8 | 475.9 | 333.6 | 314.5 |  |  |  |  |  |  |  | 
5 | O=C(NN1C(=O)c2ccc(Br)cc2C1=O)c1ccncc1 [IPK 000 008 02] | 36.4 | 31.9 | 98.2 | 0.7 | 9.3 | 98 | 83.2 | 306.6 | 218.8 | 484.5 | 305.8 |  |  |  |  |  |  |  | 
6 | O=C1c2ccccc2-c2nc3nonc3nc21 [IPK 000 011 19] | 67.2 | 93.2 | 43.1 | 9.7 | 31.6 | 47.6 | 60 | 248.8 | 80.0 | 279.1 | 190.8 |  |  |  |  |  |  |  | 
7 | O=C(Oc1cccc2ncccc12)c1ccccc1F [IPK 000 018 65] | 36.4 | 54 | 99 | 28 | 14 | 39.2 | 23.1 | 256.6 | 218.3 | 256.4 | 218.0 |  |  |  |  |  |  |  | 
8 | COc1ccc(OCCNC(=O)c2cc([N+](=O)[O-])cc([N+](=O)[O-])c2)cc1 [IPK 000 028 35] | 94 | 98.1 | 48.3 |  |  |  |  |  |  |  |  | 94.5 | 64.5 | 102 | 17.8 | 315.3 | 489.8 | 478.6 | 308.9
9 | Brc1ccc(/C=N/Nc2nc(N3CCOCC3)nc(N3CCOCC3)n2)o1 [IPK 000 011 65] | 39.8 | 40.6 | 96.3 | 4.7 | 23.4 | 41.9 | 6.5 | 259.6 | 336.5 | 201.1 | 145.5 |  |  |  |  |  |  |  | 
10 | O=C(N/N=C/c1ccccc1O)c1ccncc1 [IPK 000 041 45] | 38.4 | 47.4 | 100 | 56.7 | 103 | 87.2 | 88.6 | 437.4 | 527.9 | 243.8 | 324.5 |  |  |  |  |  |  |  | 
11 | CCCCc1ccc(/C=N/NC(=O)c2ccncc2)cc1 [IPK 000 013 69] | 51.2 | 79.1 | 62.4 | 68.9 | 105 | 58.6 | 91.3 | 405.8 | 532.1 | 443.3 | 327.5 |  |  |  |  |  |  |  | 
12 | COc1ccccc1OCCNC(=O)c1cc([N+](=O)[O-])cc([N+](=O)[O-])c1 [IPK 000 027 74] | 43.5 | 97.5 | 100 |  |  |  |  |  |  |  |  | 87.2 | -2.7 | 83.3 | 96.9 | 366.0 | 268.5 | 478.8 | 435.8
13 | O=C(N/N=C/c1cccc([N+](=O)[O-])c1)c1ccncc1 [IPK 000 041 47] | 43.8 | 82.3 | 99.5 | 74.5 | 102 | 95.5 | 102 | 479.8 | 516.1 | 345.8 | 362.8 |  |  |  |  |  |  |  | 
14 | Cc1ccc2ccc3ccc(C)nc3c2n1 [IPK 000 002 03] | 32.5 | 52.4 | 69.7 | -2 | 7.7 | -12.3 | -28.5 | 241.4 | 92.0 | 148.0 | 77.0 |  |  |  |  |  |  |  | 
15 | O=C(CSc1cccs1)Nc1nccs1 [IPK 000 002 87] | 45.9 | 36.1 | 36.4 | 11.4 | -1.3 | 66 | 65.9 | 315.9 | 246.1 | 412.9 | 350.3 |  |  |  |  |  |  |  | 
